The record followed here is publication PMC8466238, “Development of High Affinity Calcitonin Analog Fragments Targeting Extracellular Domains of Calcitonin Family Receptors” (Biomolecules, 2021).

Experiment [1] concerns RAMP3-CTR ECD fusion protein. Description: FP peptide binding assay of FITC-labeled probes with CTR ECD alone and RAMP3-CTR ECD fusion protein (Figure S1D). More on the design: species or system human. Particulars: FP binding with rising receptor ECD concentration. The protocol:
HEK293S GnTI^− cells were used to express the RAMP3-CTR ECD fusion protein. The general procedures of receptor ECD expression and purification from HEK293S GnTI^− cells were previously described. HEK293S GnTI^− cells were transiently transfected with the DNA expression vector (H-pSL001) using polyethylenimine (PEI) at 1:1.5 ratio (DNA:PEI, w/w). Transfected cells were incubated for 4 days at 37 °C. All protein purification was performed at 4 °C unless otherwise noted. Cell culture media were collected and dialyzed to dialysis buffer overnight. The next day, dialyzed cell culture media were loaded to IMAC chromatography. Peak fractions from IMAC chromatography were spin-concentrated (MWCO 10 kDa) and injected into SEC. […]
The overall procedures of FP peptide binding assay with receptor ECDs and FITC-labeled peptide probes were previously described. […] A SpectraiD5 (Molecular Devices, San Jose, CA, USA) was used to measure fluorescence polarization/anisotropy. […] For the saturation binding assay, the anisotropy values were re-calculated when total fluorescence intensity was changed by more than 10% as previously described. However, effects of fluorescence intensity changes on the affinity values (KI) obtained from the competition binding assay was reported to be minimum and re-calculation of anisotropy was not applied. […] Mean and standard deviation of peptide ligand affinity were calculated from them. […]

Experiment [2] deals with T1, AMY receptor 1 ECD (RAMP1-CTR ECD fusion protein) (Homo sapiens, UniProt O60894+P30988).
T1 construct: pHLsec/hRAMP1.24–111-(GSA)3-hCTR.34–141-H6 (H-pSL005); H6 (His6) (C); made in house; host or cells: HEK293T
Description: FP competition peptide binding assay with AMY receptor 1 ECD, FITC-AC413(6–25) Y25P probe. Conditions: Figure 5e; RAMP1-CTR ECD fusion protein 77 nM, FITC-AC413(6–25) Y25P 10 nM; mean ± SD of N = 3; read-out: pKI Mean ± SD (converted). The text has this:
(§1) The overall procedures of FP peptide binding assay with receptor ECDs and FITC-labeled peptide probes were previously described. […] A SpectraiD5 (Molecular Devices, San Jose, CA, USA) was used to measure fluorescence polarization/anisotropy. Background (reaction buffer only) was subtracted for anisotropy calculation. For the SpectraiD5, G factor (0.38 for FITC-sCT(22–32) and 0.41 for FITC-AC413(6–25) and FITC-AC413(6–25) Y25P) was used to correct the instrumental bias for anisotropy calculation. The polarization (mP) of the FITC-peptide probes only (No receptor ECD) was set close to 50 mP. For the saturation binding assay, the anisotropy values were re-calculated when total fluorescence intensity was changed by more than 10% as previously described. […] Anisotropy values were used to produce non-linear regression curves with PRISM 5.0 (GraphPad software, San Diego, CA, USA) as previously described. KI indicates affinity values obtained from competition binding assay and it was calculated from the non-linear regression curves of anisotropy by using equations previously described. Concentrations of the FITC-labeled peptide and the total receptor protein and the affinity of the FITC-labeled peptide for the receptor protein were incorporated into the equations for the KI calculation of the competitive peptide ligand. Two technical replicates were used for each receptor concentration in the peptide-binding curve. SEM of the anisotropy values of the two replicates at each receptor concentration were presented as error bars in the representative peptide-binding curves. When the error bars were shorter than the height of the symbol, they were omitted in the representative curves. At least three independent peptide binding experiments were performed to obtain three independent peptide-binding curves. Mean and standard deviation of peptide ligand affinity were calculated from them.

Experiment [3] addresses T2, CTR ECD (Homo sapiens, UniProt P30988).
T2 construct: pHLsec/hCTR.34–141-H6 (H-pSL003); H6 (His6) (C); made in house; host or cells: HEK293T
T2 sequence (P30988 34-141): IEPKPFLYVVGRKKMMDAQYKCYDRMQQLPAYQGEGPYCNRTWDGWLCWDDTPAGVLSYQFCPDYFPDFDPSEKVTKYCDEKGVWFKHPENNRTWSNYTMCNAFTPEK
Description: FP competition peptide binding assay with purified CTR ECD, FITC-sCT(22–32) probe. Conditions: CTR ECD 500 nM, FITC-sCT(22–32) 10 nM.
Description: as §1

The target in experiment [4] is T3, AMY receptor 2 ECD (RAMP2-CTR ECD fusion protein) (Homo sapiens, UniProt O60895+P30988).
T3 construct: pHLsec/hRAMP2.55–140-(GSA)3-hCTR.34–141-H6 (H-pSL006); H6 (His6) (C); made in house; host or cells: HEK293T
In words: FP competition peptide binding assay with AMY receptor 2 ECD, FITC-AC413(6–25) Y25P probe. Conditions: Figure 5f; RAMP2-CTR ECD fusion protein 67 nM, FITC-AC413(6–25) Y25P 10 nM; mean ± SD of N = 3; read-out: pKI Mean ± SD (converted).
Description: as §1

Experiment [5] deals with T4, AMY receptor 3 ECD (RAMP3-CTR ECD fusion protein) (Homo sapiens, UniProt O60896+P30988).
T4 construct: pHLsec/hRAMP3.25–112-(GSA)3-hCTR.34–141-H6 (H-pSL001); H6 (His6) (C); made in house; host or cells: HEK293S GnTI−
T4 sequence (O60896+P30988 with tags, fused parts or gaps): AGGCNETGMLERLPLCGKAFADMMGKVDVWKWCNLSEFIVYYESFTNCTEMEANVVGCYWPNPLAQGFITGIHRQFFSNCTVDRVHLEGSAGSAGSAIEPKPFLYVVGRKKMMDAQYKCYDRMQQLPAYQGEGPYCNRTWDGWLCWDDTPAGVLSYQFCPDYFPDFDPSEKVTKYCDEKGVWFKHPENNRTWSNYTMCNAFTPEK
In words: FP competition peptide binding assay with AMY receptor 3 ECD, FITC-AC413(6–25) Y25P probe. Conditions: Figure 5g; RAMP3-CTR ECD fusion protein 252 nM, FITC-AC413(6–25) Y25P 10 nM; mean ± SD of N = 3; read-out: pKI Mean ± SD (converted).
Description: as §1

Experiment [6] deals with T5, FITC-labeled AC413(6–25) with Y25P mutation (Y25P (stands in the printed letters), FITC-(Ahx) (aminohexanoic acid) on the N-terminus; C-terminal amide).
T5 construct: residues 6-25 of AC413, an antagonistic amylin peptide analog, with Y25P; peptide probe of the FP assay with the AMY receptor ECDs; also called FITC-AC413(6–25) Y25P; source: synthetic peptide (Genscript, HPLC-purified)
T5 peptide: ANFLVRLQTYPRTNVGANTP
In words: fluorescence polarisation; saturation binding: FITC-labeled peptide probe (10 nM) with rising receptor ECD concentrations; receptor ECD concentration at half of the maximal anisotropy. Conditions: both partners purified. For orientation: Fluorescence polarisation rises when a labelled molecule tumbles more slowly, as on binding a larger partner.

Where [7] appears, read: Figure 4b experiment set, mean ± SD of N = 3 (N = 4 for sCT(22–32)) independent experiments, read-out: pKI Mean ± SD (converted).
The mark [8] stands for this setting: Figure 1d experiment set, mean ± SD of N = 3 independent experiments, pKI = –log10[KI] (M).

Like-named read-outs stand apart in the source and are kept apart here. Where a SMILES comes first, the peptide text is derived from it. Where no end group is shown, it is not given here. [ ]: non-standard residue; d: D form. The star is where a group is joined. FITC = O=C1OC2(c3ccc(O)cc3Oc3cc(O)ccc32)c2ccc(NC(=S)*)cc21; Hyp = O=C(O)[C@@H]1C[C@@H](O)CN1; Ahx = NCCCCCC(=O)O

As to “{FITC-Ahx}-ANFLVRLQTYPRTNVGANTP-NH2 [FITC-AC413(6–25) Y25P, FITC-labeled AC413(6–25) with Y25P mutation, probe for AMY receptor ECDs]”, the “affinity for the RAMP3-CTR ECD fusion protein compared to FITC-labeled AC413(6–25)” value in experiment [1] is “great affinity increase”.

Consider “YPRTNTGSGTP-NH2 [sCT(22–32), reference compound]”, for which the Ki in experiment [2] is 2570 nM; in experiment [3] (setting [7]) it was 2.04e-06 M; in experiment [3] (setting [8]), 1.78e-06 M; in experiment [4] it was 2820 nM; in experiment [5] it was 2570 nM.

`C[C@@H](O)[C@H](NC(=O)[C@H](CC(=O)O)NC(=O)[C@@H](NC(=O)[C@H](CCCNC(=N)N)NC(=O)[C@@H]1CCCN1C(=O)[C@@H](N)Cc1ccc(O)cc1)[C@@H](C)O)C(=O)NCC(=O)N1CCC[C@H]1C(=O)NCC(=O)N[C@H](C(=O)N1C[C@H](O)C[C@H]1C(N)=O)[C@@H](C)O` [sCT(22–32) N26D/S29P/P32HYP] (H-YPRTDTGPGT[Hyp]-NH2): the Ki is 123 nM in experiment [2], 9.55e-08 M in experiment [3] (setting [7]), 339 nM in experiment [4] and 117 nM in experiment [5].

For the molecule YPRTDTGPGTP-NH2 [sCT(22–32) N26D/S29P], the Ki in experiment [2] is 380 nM; in experiment [3] (Figure 3b experiment set, mean ± SD of N = 3 independent experiments, read-out: pKI Mean ± SD (converted)) it was 2.4e-07 M; in experiment [3] (setting [8]), 3.16e-07 M; in experiment [4] it was 468 nM; in experiment [5], 331 nM.

Regarding “{FITC-Ahx}-ANFLVRLQTYPRTNVGANTY-NH2 [FITC-AC413(6–25), FITC-labeled fragment of the antagonistic amylin analog AC413, peptide probe]”, in experiment [1], the “binding for the RAMP3-CTR ECD fusion protein over CTR ECD alone” value is “selective binding”.

For `C[C@@H](O)[C@H](NC(=O)[C@H](CC(N)=O)NC(=O)[C@@H](NC(=O)[C@H](CCCNC(=N)N)NC(=O)[C@@H]1CCCN1C(=O)[C@@H](N)Cc1ccc(O)cc1)[C@@H](C)O)C(=O)NCC(=O)N[C@@H](CO)C(=O)NCC(=O)N[C@H](C(=O)N1C[C@H](O)C[C@H]1C(N)=O)[C@@H](C)O` [sCT(22–32) P32HYP] (H-YPRTNTGSGT[Hyp]-NH2), the Ki in experiment [2] was 891 nM; in experiment [3] (setting [7]), 8.91e-07 M; in experiment [4], 1410 nM; in experiment [5], 1000 nM.

B1: RAMP2-CTR ECD fusion protein (hRAMP2.55–140-(GSA)3-hCTR.34–141-H6) (receptor, human)
chain: GGTVKNYETAVQFCWNHYKDQMDPIEKDWCDWAMISRPYSTLRDCLEHFAELFDLGFPNPLAERIIFETHQIHFANCSLVQPTFSDGSAGSAGSAIEPKPFLYVVGRKKMMDAQYKCYDRMQQLPAYQGEGPYCNRTWDGWLCWDDTPAGVLSYQFCPDYFPDFDPSEKVTKYCDEKGVWFKHPENNRTWSNYTMCNAFTPEK
notes: human receptor activity-modifying protein 2 (RAMP2), extracellular domain, residues 55-140; linker, printed as (GSA)3; human calcitonin receptor (CTR), extracellular domain, residues 34-141; Secreted from a pHLsec-based vector; also called AMY receptor 2 ECD; RAMP2 ECD-CTR ECD fusion; source: HEK293T, transiently transfected, secreted to cell culture media, purified (IMAC, SEC)
Take B1: the “receptor ECD concentration that produced a half of the maximal anisotropy with the peptide probe” value in experiment [6] was determined as 67 nM.

B2: RAMP3-CTR ECD fusion protein (hRAMP3.25–112-(GSA)3-hCTR.34–141-H6) (receptor, human)
chain: T4 sequence (O60896+P30988 with tags, fused parts or gaps)
notes: human receptor activity-modifying protein 3 (RAMP3), extracellular domain, residues 25-112; linker, printed as (GSA)3; human calcitonin receptor (CTR), extracellular domain, residues 34-141; Secreted from a pHLsec-based vector; also called AMY receptor 3 ECD; RAMP3 ECD-CTR ECD fusion protein; source: HEK293S GnTI-, transiently transfected (PEI), secreted to cell culture media, purified (IMAC, SEC)
Turning to B2, the “receptor ECD concentration that produced a half of the maximal anisotropy with the peptide probe” value in experiment [6] was 252 nM.

B3: RAMP1-CTR ECD fusion protein (hRAMP1.24–111-(GSA)3-hCTR.34–141-H6) (receptor, human)
chain: TTACQEANYGALLRELCLTQFQVDMEAVGETLWCDWGRTIRSYRELADCTWHMAEKLGCFWPNAEVDRFFLAVHGRYFRSCPISGRAVGSAGSAGSAIEPKPFLYVVGRKKMMDAQYKCYDRMQQLPAYQGEGPYCNRTWDGWLCWDDTPAGVLSYQFCPDYFPDFDPSEKVTKYCDEKGVWFKHPENNRTWSNYTMCNAFTPEK
notes: human receptor activity-modifying protein 1 (RAMP1), extracellular domain, residues 24-111; linker, printed as (GSA)3; human calcitonin receptor (CTR), extracellular domain, residues 34-141; Secreted from a pHLsec-based vector; also called AMY receptor 1 ECD; RAMP1 ECD-CTR ECD fusion; source: HEK293T, transiently transfected, secreted to cell culture media, purified (IMAC, SEC)
For the molecule B3, in experiment [6], the “receptor ECD concentration that produced a half of the maximal anisotropy with the peptide probe” value was determined as 77 nM.
